Data from patent US20070060534A1, “Anthracycline analogs” (Threshold Pharmaceuticals, Inc., priority 2005, published 2007).
“And” between values parts separate entries of the source, which are not always exact repeats. Equal entries are not always repeated. Where two headings read alike, the source gives them in different places.

Test system: H460 cells
Experiment: Cytotoxicity: anti-proliferation activity on H460 cells, multi-well Alamar Blue based assay
Assay type: cell-based
Protocol: Cell growth in the presence and absence of the test compound was compared following a multi-well Alamar Blue based assay, and measured by a fluorescence plate reader at 550 nm excitation and 590 nm emission (see Biosource International Inc., Tech Application Notes, Use of Alamar Blue in the measurement of Cell Viability and Toxicity, Determining IC50). H460 cells (ATCC HTB-177 (NCl—H40), 4,000 cells/well/200 μl) were seeded in a 96 well plate in RPMI medium (Invitrogen Corporation, Carlsbad, Calif.). After 24 hours, these plates were divided into 3 groups—Control group, 2 h treatment group and 3 day treatment group. A test compound was added in a range of concentration to each plate in the treatment groups (2 h and 3 day). In the 2 h treatment group, after 2 h, the H460 cells were rinsed to remove the test compound, incubated for 3 days, and stained with AlamarBlue. The cells in the 3-day treatment group were incubated along with the test compound for 3 days, followed by staining with AlamarBlue. In the Control group, AlamarBlue was added to the plate at (i) day 0 and (ii) day 3 and the fluorescence emission measured to establish the control reading. In all the groups, the capacity of the cells to proliferate was measured 6 hours after addition of AlamarBlue by a fluorescence plate reader at 550 nm excitation and 590 nm emission.

[1] = Homo sapiens, NCI-H460, 2 h, read-out: GI90
[2] = Homo sapiens, NCI-H460, 72 h, read-out: GI50 (concentration required to inhibit cellular proliferation by 50%)
[3] = Homo sapiens, NCI-H460, 72 h, read-out: GI90
[4] = Homo sapiens, NCI-H460, read-out: GI50 (concentration required to inhibit cellular proliferation by 50%)
[5] = read-out: GI50 (concentration required to inhibit cellular proliferation by 50%)
[6] = read-out: GI90 (the source's name)
[7] = Homo sapiens, NCI-H460, 72 h, H460 cells, 3 day incubation with compound, AlamarBlue, read-out: GI50 (concentration required to inhibit cellular proliferation by 50%)
[8] = Homo sapiens, NCI-H460, 72 h, H460 cells, 3 day incubation with compound, AlamarBlue, read-out: GI90 (the source's name)
[9] = Homo sapiens, NCI-H460, H460 cells, 2 h treatment, rinsed, then incubated for 3 days, AlamarBlue, read-out: GI50 (concentration required to inhibit cellular proliferation by 50%)
[10] = Homo sapiens, NCI-H460, H460 cells, 2 h treatment, rinsed, then incubated for 3 days, AlamarBlue, read-out: GI90 (the source's name)

Structure (SMILES) | IC90 [1] | GI50 [2] | IC90 [3] | GI50 [4] | other results
COc1cccc2c1C(=O)c1c(O)c3c(c(O)c1C2=O)C[C@@](O)(C(C)=O)C[C@@H]3O[C@H]1CC(N2CCOCC2O)C(O)[C@H](C)O1 (some centres unmarked) [Compound 59] | 1000 nM | 50 nM | 200 nM | 200 nM | –
COc1cccc2c1C(=O)c1c(O)c3c(c(O)c1C2=O)C[C@@](O)(C(C)=O)C[C@@H]3O[C@H]1CC2C(OC3CN(C(=O)OCc4cnc([N+](=O)[O-])n4C)CCN32)[C@H](C)O1 (some centres unmarked) [Compound 28] | 0.1 nM | 0.4 nM | 1.26 nM | 0.03 nM | –
COCCOC(=O)N1CCN(C2C[C@H](O[C@H]3C[C@](O)(C(C)=O)Cc4c(O)c5c(c(O)c43)C(=O)c3c(OC)cccc3C5=O)O[C@H](C)C2O)C(C#N)C1 (some centres unmarked) [Compound 14] | 0.4 nM | 0.2 nM | 0.63 nM | 0.2 nM | –
COc1cccc2c1C(=O)c1c(O)c3c(c(O)c1C2=O)C[C@@](O)(C(C)=O)C[C@@H]3O[C@H]1CC(N2CCN(C(=O)OCc3cnc([N+](=O)[O-])n3C)CC2)C(O)[C@H](C)O1 (some centres unmarked) [Compound 33] | – | – | – | – | GI50 [5]: 20 nM and 10 nM; IC90 [6]: 79 nM and 50 nM
COc1cccc2c1C(=O)c1c(O)c3c(c(O)c1C2=O)C[C@@](O)(C(C)=O)C[C@@H]3O[C@H]1CC(NC(C#N)COCCCl)C(O)[C@H](C)O1 (some centres unmarked) [Compound 53] | – | 2.5 nM | – | 15.8 nM | –
COc1cccc2c1C(=O)c1c(O)c3c(c(O)c1C2=O)CC(O)(C(C)=O)CC3OC1CC(N2CCN(C(C)=O)CC2)C(O)C(C)O1 (centres unmarked) [Compound 46] | – | – | – | – | IC90 [6]: 158.50 nM and 100.00 nM
COc1cccc2c1C(=O)c1c(O)c3c(c(O)c1C2=O)C[C@@](O)(C(C)=O)C[C@@H]3O[C@H]1CC(N2CCOCC2C#N)C(OC(=O)OCC(C)C)[C@H](C)O1 (some centres unmarked) [Compound 57] | 316 nM | 1.58 nM | 10 nM | 125 nM | –
COc1cccc2c1C(=O)c1c(O)c3c(c(O)c1C2=O)C[C@@](O)(C(C)=O)C[C@@H]3O[C@H]1CC(N2CCN(C(=O)CC(C)(C)C)CC2)C(O)[C@H](C)O1 (some centres unmarked) [Compound 48] | 398 nM | 63.1 nM | 200 nM | 141 nM | –
COc1cccc2c1C(=O)c1c(O)c3c(c(O)c1C2=O)C[C@@](O)(C(=O)COC(=O)OCc1cnc([N+](=O)[O-])n1C)C[C@@H]3O[C@H]1CC(N2CCOCC2C#N)[C@H](O)[C@H](C)O1 (some centres unmarked) [Compound 60] | 2.5 nM | 0.1 nM | 0.2 nM | 0.79 nM | –
COc1cccc2c1C(=O)c1c(O)c3c(c(O)c1C2=O)C[C@@](O)(C(C)=O)C[C@@H]3O[C@H]1CC(NC(C#N)COCCOS(=O)(=O)c2ccc(C)cc2)C(O)[C@H](C)O1 (some centres unmarked) [Compound 52] | – | – | – | 0.3 nM | –
COc1cccc2c1C(=O)c1c(O)c3c(c(O)c1C2=O)C[C@@](O)(C(C)=O)C[C@@H]3O[C@H]1CC(N2CCN(C(=O)OCc3cnc([N+](=O)[O-])n3C)CC2C#N)C(O)[C@H](C)O1 (some centres unmarked) [Compound 3] | – | – | – | – | GI50 [5]: 2.5 nM and 1.3 nM; IC90 [6]: 7.90 nM and 4.00 nM
COc1cccc2c1C(=O)c1c(O)c3c(c(O)c1C2=O)C[C@@](O)(C(C)=O)C[C@@H]3O[C@H]1CC(N2CCN(C(=O)OCC(C)C)CC2)C(O)[C@H](C)O1 (some centres unmarked) [Compound 47] | 398 nM | 20 nM | 100 nM | 126 nM | –
COc1cccc2c1C(=O)c1c(O)c3c(c(O)c1C2=O)C[C@@](O)(C(O)CO)C[C@@H]3O[C@H]1CC(N2CCN(C(=O)OC(C)(C)C)CC2)[C@H](O)[C@H](C)O1 (some centres unmarked) [Compound 49] | 158 nM | 20 nM | 100 nM | 63.1 nM | –
COc1cccc2c1C(=O)c1c(O)c3c(c(O)c1C2=O)C[C@@](O)(C(C)=O)C[C@@H]3O[C@@H]1CC(N2CCN(C(=O)OCc3ccc([N+](=O)[O-])o3)CC2C#N)C(O)[C@H](C)O1 (some centres unmarked) [Compound 5] | – | – | – | – | GI50 [7]: 1 nM; IC90 [8]: 4 nM; GI50 [9]: 3.2 nM; IC90 [10]: 10 nM
COc1cccc2c1C(=O)c1c(O)c3c(c(O)c1C2=O)CC(O)(C(C)=O)CC3OC1CC(N2CCN(C(=O)OCC3c4ccccc4-c4ccccc43)CC2)C(O)C(C)O1 (centres unmarked) [Compound 44] | – | – | – | – | IC90 [6]: 501 nM
COc1cccc2c1C(=O)c1c(O)c3c(c(O)c1C2=O)C[C@@](O)(C(O)CO)C[C@@H]3O[C@H]1CC(N2CCN(C(=O)OC(C)(C)C)CC2C#N)[C@H](O)[C@H](C)O1 (some centres unmarked) [Compound 13] | 50.1 nM | 4 nM | 20 nM | 10 nM | –
COc1cccc2c1C(=O)c1c(O)c3c(c(O)c1C2=O)C[C@@](O)(C(C)=O)C[C@@H]3O[C@H]1CC(NC(COCCOS(=O)(=O)c2ccc(C)cc2)OC)C(O)[C@H](C)O1 (some centres unmarked) [Compound 51] | – | – | – | 2.5 nM | –
COc1cccc2c1C(=O)c1c(O)c3c(c(O)c1C2=O)C[C@@](O)(C(C)=O)C[C@@H]3O[C@H]1CC(N2CCN(C(=O)C(F)(F)F)CC2)C(O)[C@H](C)O1 (some centres unmarked) [Compound 45] | – | – | – | – | IC90 [6]: 1000 nM and 630 nM
COCCOC(=O)N1CCN2C(C1)OC1C2C[C@H](O[C@H]2C[C@](O)(C(=O)CO)Cc3c(O)c4c(c(O)c32)C(=O)c2c(OC)cccc2C4=O)O[C@@H]1C (some centres unmarked) [Compound 50] | – | – | – | – | GI50 [7]: 0.16 nM; IC90 [8]: 0.32 nM; GI50 [9]: 0.13 nM; IC90 [10]: 0.4 nM
COc1cccc2c1C(=O)c1c(O)c3c(c(O)c1C2=O)C[C@]1(O)C[C@@H]3O[C@H]2CC([C@H](O)[C@H](C)O2)N2CCOCC2OCC1=O (some centres unmarked) [Compound 58] | – | – | – | – | GI50 [7]: 0.14 nM; IC90 [8]: 0.6 nM; GI50 [9]: 0.3 nM; IC90 [10]: 1 nM
